According to patent publication US20240173422A1, “BICYCLIC PEPTIDE LIGAND DRUG CONJUGATES” (BICYCLETX LIMITED, priority 2019, published 2024):
pKd: −log10 of the molar value. Values belong to the substance of their own block, whether it stands above or below them. Numbered stars: 1 amine (or outer) side, 2 acyl side, 3 side chain; on linkers, the order of the positions; unused ones are H or OH. Bridge positions count the residues as written; N and C are the ends. Square brackets hold non-standard residues; d marks the D form. I, II: the chains in the order shown. * marks the point of attachment. X2 = O=C(CCOCCOCCOCCOCCOCCOCCOCCOCCOCCOCCC(=O)[*:2])[*:1]; TATA = O=C(CC[*:1])N1CN(C(=O)CC[*:2])CN(C(=O)CC[*:3])C1; Dolaproine = CO[C@@H]([C@@H]1CCCN1)[C@@H](C)C(=O)O; Dil = CC[C@H](C)[C@H](NC)[C@@H](CC(=O)O)OC; 1Nal = N[C@@H](Cc1cccc2ccccc12)C(=O)O; X3 = O=C(CCCC(=O)[*:2])NCCC(=O)[*:1]; PABC = O=C(OCc1ccc(N[*:1])cc1)[*:2]; X1 = C[C@@H](N*)[C@@H](O)c1ccccc1; Hyp = O=C(O)[C@@H]1C[C@@H](O)CN1; Cit = NC(=O)NCCC[C@H](N)C(=O)O; NMeV = CN[C@H](C(=O)O)C(C)C; Sar = CNCC(=O)O

Key:
[1] = molecular target: Human Nectin-4 (residues Gly32-Ser349; NCBI RefSeq: NP_112178.2) with C-terminal FLAG tag, biotinylated (human) (UniProt Q96NY8); test: SPR (Biacore 3000), biotinylated Nectin-4 captured on streptavidin CM5 chip, peptide as analyte
[2] = molecular target: Human Nectin-4 (residues Gly32-Ser349; NCBI RefSeq: NP_112178.2) with C-terminal FLAG tag, biotinylated (human) (UniProt Q96NY8); test: SPR binding assay, against BCY8126 as reference
[3] = Body weight monitoring in the NCI-H292 xenograft study; format: in vivo, Balb/c nude mice (Mus Musculus); conditions: 3 mpk, iv, qw
Protocol: All the procedures related to animal handling, care and the treatment in the study were performed according to the guidelines approved by the Institutional Animal Care and Use Committee (IACUC) of WuXi AppTec, following the guidance of the Association for Assessment and Accreditation of Laboratory Animal Care (AAALAC). At the time of routine monitoring, the animals were checked for any effects of tumor growth and treatments on normal behavior such as mobility, food and water consumption (by looking only), body weight gain/loss, eye/hair matting and any other abnormal effect as stated in the protocol. Death and observed clinical signs were recorded on the basis of the numbers of animals within each subset.

[4] = tested on: NCI-H292 xenograft; test: In vivo efficacy study in NCI-H292 xenograft in Balb/c nude mice; set-up: species or system Balb/c nude mice (Mus Musculus); conditions: 3 mpk, iv
From the text: In Vivo Efficacy Study of BCY8244 in Treatment of NCI-H292 Xenograft in Balb/c Nude Mice
The objective of the research is to evaluate the in vivo anti-tumor efficacy of BCY8244 in treatment of NCI-H292 xenograft in Balb/c nude mice.
• Species: Mus Musculus • Strain: Balb/c nude • Age: 6-8 weeks • Sex: female • Body weight: 18-22 g • Number of animals: 43 mice plus spare • Animal supplier: Shanghai Lingchang Biotechnology Experimental Animal Co. Ltd
The NCI-H292 tumor cells were maintained in vitro as a monolayer culture in RPMI-1640 medium supplemented with 10% heat inactivated fetal bovine serum at 37° C. in an atmosphere of 5% CO2 in air. The tumor cells were routinely subcultured twice weekly by trypsin-EDTA treatment. The cells growing in an exponential growth phase were harvested and counted for tumor inoculation.
Each mouse was inoculated subcutaneously at the right flank with NCI-H292 tumor cells (10×10^6) in 0.2 ml of PBS for tumor development. 43 animals were randomized when the average tumor volume reached 168 mm^3. The test article administration and the animal numbers in each group were shown in the experimental design table.
The major endpoint was to see if the tumor growth could be delayed or mice could be cured. Tumor volume was measured three times weekly in two dimensions using a caliper, and the volume was expressed in mm^3 using the formula: V=0.5 a×b^2 where a and b are the long and short diameters of the tumor, respectively. The tumor size was then used for calculations of T/C value. The T/C value (in percent) is an indication of antitumor effectiveness; T and C are the mean volumes of the treated and control groups, respectively, on a given day. TGI was calculated for each group using the formula: TGI (%)=[1−(Ti−T0)/(Vi−V0)]×100; Ti is the average tumor volume of a treatment group on a given day, T0 is the average tumor volume of the treatment group on the day of treatment start, Vi is the average tumor volume of the vehicle control group on the same day with Ti and V0 is the average tumor volume of the vehicle group on the day of treatment start.
Summary statistics, including mean and the standard error of the mean (SEM), were provided for the tumor volume of each group at each time point.
Statistical analysis of difference in tumor volume among the groups was conducted on the data obtained at the best therapeutic time point after the final dose.
A t-test was performed to compare tumor volume among groups, […]. All data were analyzed using GraphPad Prism 5.0. P<0.05 was considered to be statistically significant.
Tumor growth inhibition rate for test articles in the NCI-H292 xenograft model was calculated based on tumor volume measurements at day 14 after the start of treatment.

[5] = molecular target: T1, human Nectin-4 (Homo sapiens, UniProt Q96NY8); test: Nectin-4 Biacore SPR binding assay
T1 sequence (Q96NY8 32-349): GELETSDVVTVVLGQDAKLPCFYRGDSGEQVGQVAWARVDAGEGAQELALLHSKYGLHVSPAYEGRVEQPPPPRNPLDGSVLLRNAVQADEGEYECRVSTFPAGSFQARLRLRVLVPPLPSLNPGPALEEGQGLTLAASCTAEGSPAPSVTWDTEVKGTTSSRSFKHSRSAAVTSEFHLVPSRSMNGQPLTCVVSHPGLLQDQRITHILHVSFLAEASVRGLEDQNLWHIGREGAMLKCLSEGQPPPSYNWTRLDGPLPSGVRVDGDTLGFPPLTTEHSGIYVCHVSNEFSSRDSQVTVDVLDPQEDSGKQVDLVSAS

- pKd [1]: 8.84
- koff [1]: 0.000969 s⁻¹
- kon [1]: 662000 M⁻¹ s⁻¹
Substance: BCY8126 (Nectin-4 monomer) (peptide)

- fold greater binding activity than BCY8126 [2]: 3.5 fold
- koff [1]: 0.000319 s⁻¹
Substance: BCY8244 (Nectin-4 homo-tandem), BDC of formula (A) (peptide)

Substance: I: [Sar][Sar][Sar][Sar][Sar][Sar][Sar][Sar][Sar][Sar]CP[1Nal][dD]CMKDWSTP[Hyp]WC-NH2 / II: [Sar][Sar][Sar][Sar][Sar][Sar][Sar][Sar][Sar][Sar]CP[1Nal][dD]CMKDWSTP[Hyp]WC-NH2 / III: V[Cit][PABC][NMeV]V[Dil][Dolaproine]-X1 / IV: V[Cit][PABC][NMeV]V[Dil][Dolaproine]-X1 (linker I:11-I:15-I:25, II:11-II:15-II:25 via TATA; linker I:17-II:17 via X2; linker I:N-III:N, II:N-IV:N via X3; C-terminus assumed) [BCY8244]
- body weight [3]: maintained the bodyweight well
- tumor inhibitory effect ([4]; NCI-H292 xenograft, qw, 3 mg/kg): excellent levels of tumor inhibitory effect and regressed the tumors potently
- Tumor volume (mean ± SEM) ([4]; day 0 after the start of treatment, qw): 168 ± 20 mm^3
- Tumor volume (mean ± SEM) ([4]; day 2 after the start of treatment, qw): 187 ± 20 mm^3
- Tumor volume (mean ± SEM) ([4]; day 4 after the start of treatment, qw): 180 ± 48 mm^3
- Tumor volume (mean ± SEM) ([4]; day 7 after the start of treatment, qw): 155 ± 33 mm^3
- Tumor volume (mean ± SEM) ([4]; day 9 after the start of treatment, qw): 141 ± 29 mm^3
- Tumor volume (mean ± SEM) ([4]; day 11 after the start of treatment, qw): 96 ± 23 mm^3
- TGI ([4]; day 14, qw): 109.0%
- Tumor volume (mean ± SEM) ([4]; day 14, qw (Table 5)): 108 ± 15 mm^3
- T/C ([4]; day 14, qw, treated/control mean tumor volume): 12.8%
- Tumor volume (mean ± SEM) ([4]; day 14 after the start of treatment, qw (Table 4)): 108 ± 15 mm^3
- pKd [5]: 9.37
- binding in the SPR binding assay [5]: good levels of binding
- kd ([5]; Biacore SPR, biotinylated human Nectin-4, 25° C.): 0.000319 s⁻¹
- fold greater binding activity in the SPR binding assay than monomeric BCY8126 ([5]; homo-tandem versus monomer): 3.5 fold
- kon ([5]; read-out: ka): 750000 M⁻¹ s⁻¹
